Columns and labels:
Phaedon cochleariae = Phaedon cochleariae test (cabbage leaf dip, larvae mortality); assay type: in vivo; conditions: foliar, 96 h, single compound, dipped cabbage leaves infested with larvae, after 4 d
Method: (§1) The expected efficacy of a given combination of two compounds is calculated as follows (see Colby, S. R., “Calculating Synergistic and antagonistic Responses of Herbicide Combinations”, Weeds 15, pp. 20-22, 1967):
(§2) X is the efficacy expressed in % mortality of the untreated control for test compound A at a concentration of m ppm respectively m g/ha,
(§3) Y is the efficacy expressed in % mortality of the untreated control for test compound B at a concentration of n ppm respectively n g/ha,
(§4) E is the efficacy expressed in % mortality of the untreated control using the mixture of A and B at m and n ppm respectively m and n g/ha,
(§5) If the observed insecticidal efficacy of the combination is higher than the one calculated as “E”, then the combination of the two compounds is more than additive, i.e., there is a synergistic effect.
(§6) Solvent: 7 parts by weight of dimethylformamide
(§7) Emulsifier: 2 parts by weight of alkylaryl polyglycolether
To produce a suitable preparation of active compound, 1 part by weight of active compound is mixed with the stated amount of solvent and emulsifier, and the concentrate is diluted with emulsifier-containing water to the desired concentration.
Cabbage leaves (Brassica oleracea) are treated by being dipped into the preparation of the active compound of the desired concentration and are infested with larvae of the mustard beetle (Phaedon cochleariae) as long as the leaves are still moist.
After the specified period of time, the mortality in % is determined. 100% means that all the beetle larvae have been killed; 0% means that none of the beetle larvae have been killed.

Myzus persicae = Myzus persicae test (cabbage leaf dip, mortality); assay type: in vivo; conditions: foliar, 96 h, single compound, infested cabbage leaves dipped, after 4 d
Method: as §1, §2, §3, §4, §5, §6, §7
To produce a suitable preparation of active compound, 1 part by weight of active compound is mixed with the stated amount of solvent and emulsifier, and the concentrate is diluted with emulsifier-containing water to the desired concentration. […]
After the specified period of time, the mortality in % is determined. […]

| Structure (SMILES) | mortality at 3e-06 ppm (Phaedon cochleariae; 0.000003 ppm) [%] | mortality at 3e-05 ppm (Phaedon cochleariae; 0.00003 ppm) [%] | mortality at 3e-06 ppm (Myzus persicae; 0.000003 ppm) [%] | mortality at 20 ppm (Phaedon cochleariae; 20 ppm) [%] | mortality at 0.16 ppm (Myzus persicae; 0.16 ppm) [%] |
| --- | --- | --- | --- | --- | --- |
| CC1=CC(O/C=C2/C(=O)OC3c4ccccc4CC23)OC1=O (centres unmarked) [Compound A] | 0 | 0 | 0 |  |  |
| O=[N+]([O-])NC1=NCCN1Cc1ccc(Cl)nc1 [Imidacloprid, reference compound] |  |  |  | 70 | 10 |
